Earlier results, collected in patent US20180110888A1, “COMBINATIONS FOR THE TREATMENT OF CANCER” (BAYER PHARMA AKTIENGESELLSCHAFT, priority 2012, published 2018).

Tests used:
[1] = tested on: CRPC (Castration Resistant Prostate Cancer) and bone metastases
[2] = single dose 250 kBq per kg body weight
[3] = phase 2 studies, patients with CRPC and bone metastases

Compound	reduction in risk of death compared with placebo ([1]; overall survival, patients with CRPC and bone metastases) [%]	median survival longer than placebo by ([1]; patients with CRPC and bone metastases) [months]	time to first skeletal-related event ([1]; versus placebo)	cases of grade 3 neutropenia [2]	observed adverse reactions [2]	safety profile (bone metastases; phase 1 and 2 studies, patients with bone metastases)	effect on disease-related biomarkers (bone ALP, PSA) (bone metastases; [3])	effect on pain (bone metastases; [3])	excreted by feces (in vivo) [%]	excreted by urine (in vivo) [%]	terminal half life (in vivo) [h]	effect of administration with food (oral administration with food)
[Cl][223Ra][Cl] [radium-223, Radium-223 dichloride]	30.5	2.8	significantly prolonged	1/5	diarrhea and reversible myelosuppression	minimal myelotoxicity	improves disease-related biomarkers	reduces pain	–	–	–	–
C[C@]12CC[C@H](O)CC1=CC[C@@H]1[C@@H]2CC[C@]2(C)C(c3cccnc3)=CC[C@@H]12 [abiraterone]	–	–	–	–	–	–	–	–	~88	~5	12 ± 5	increases absorption
